# Biological target: T1, W206F ELIC (Dickeya chrysanthemi, UniProt P0C7B7, W205F)
# T1 construct: host or cells: OverExpress C43 (DE3) E. coli
# Test: Tryptophan fluorescence emission spectrum with and without agonist
# Type: biochemical, Erwinia chrysanthemi
# Settings: W206F 30 mM Cys
# Protocol: To measure the tryptophan (Trp) fluorescence emission of ELIC, WT or W206F ELIC was diluted to 3 ml (0.02 mg/ml) and an emission spectrum was collected in a quartz fluorescence cell using a Fluoromax Plus Spectrofluorometer (Horiba Scientific). […] Trp fluorescence measurements with rapid mixing of agonist was carried out using the SX20 stopped-flow spectrofluorometer, outfitted with a 295 nm LED excitation source. Purified ELIC was diluted to 0.1 mg/ml in Trp Stopped-flow Buffer A (10 mM Tris pH 7.5, 100 mM NaCl, 0.05% DDM). A single mixing experiment was performed by mixing ELIC with equal volumes of Buffer A + propylamine. Propylamine was prepared at varying concentrations at 2x the final concentration. The instrument dead time was ~1 ms, enabling capture of most of the time course of change in Trp fluorescence. The time course of decrease in Trp fluorescence after rapid mixing with propylamine was fit to a single exponential to obtain a time constant for the rate of decrease and a measure of the extent of decrease. All replicates were taken from distinct samples.
# T1 sequence (P0C7B7 whole entry W205F): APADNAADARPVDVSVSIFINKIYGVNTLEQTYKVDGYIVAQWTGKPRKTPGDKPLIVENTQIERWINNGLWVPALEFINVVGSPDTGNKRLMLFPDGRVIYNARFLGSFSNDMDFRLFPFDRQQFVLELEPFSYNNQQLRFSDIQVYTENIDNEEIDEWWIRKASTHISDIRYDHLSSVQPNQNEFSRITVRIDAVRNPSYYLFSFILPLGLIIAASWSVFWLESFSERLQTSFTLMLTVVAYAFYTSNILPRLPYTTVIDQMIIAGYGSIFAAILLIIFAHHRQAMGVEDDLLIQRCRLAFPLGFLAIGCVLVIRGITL
smiles,measurement,setting,value
NCCS [cysteamine],Tryptophan fluorescence emission intensity,wavelength 320,771490
same,Tryptophan fluorescence emission intensity,wavelength 321,795430
same,Tryptophan fluorescence emission intensity,wavelength 322,813680
same,Tryptophan fluorescence emission intensity,wavelength 323,843300
same,Tryptophan fluorescence emission intensity,wavelength 324,855410
same,Tryptophan fluorescence emission intensity,wavelength 325,890410
same,Tryptophan fluorescence emission intensity,wavelength 327,921570
same,Tryptophan fluorescence emission intensity,wavelength 328,945690
same,Tryptophan fluorescence emission intensity,wavelength 329,972730
same,Tryptophan fluorescence emission intensity,wavelength 330,989960
same,Tryptophan fluorescence emission intensity,wavelength 331,1002600
same,Tryptophan fluorescence emission intensity,wavelength 332,1020470
same,Tryptophan fluorescence emission intensity,wavelength 333,1032760
same,Tryptophan fluorescence emission intensity,wavelength 334,1043250
same,Tryptophan fluorescence emission intensity,wavelength 335,1051410
same,Tryptophan fluorescence emission intensity,wavelength 336,1059950
same,Tryptophan fluorescence emission intensity,wavelength 337,1062210
same,Tryptophan fluorescence emission intensity,wavelength 338,1071660
same,Tryptophan fluorescence emission intensity,wavelength 339,1076280
same,Tryptophan fluorescence emission intensity,wavelength 340,1083710
same,Tryptophan fluorescence emission intensity,wavelength 341,1085920
same,Tryptophan fluorescence emission intensity,wavelength 342,1080500
same,Tryptophan fluorescence emission intensity,wavelength 343,1081010
same,Tryptophan fluorescence emission intensity,wavelength 344,1074670
same,Tryptophan fluorescence emission intensity,wavelength 345,1071140
same,Tryptophan fluorescence emission intensity,wavelength 346,1066530
same,Tryptophan fluorescence emission intensity,wavelength 347,1060720
same,Tryptophan fluorescence emission intensity,wavelength 348,1058590
same,Tryptophan fluorescence emission intensity,wavelength 349,1045760
same,Tryptophan fluorescence emission intensity,wavelength 350,1042330
same,Tryptophan fluorescence emission intensity,wavelength 351,1034700
same,Tryptophan fluorescence emission intensity,wavelength 352,1019030
same,Tryptophan fluorescence emission intensity,wavelength 353,1010620
same,Tryptophan fluorescence emission intensity,wavelength 354,993340
same,Tryptophan fluorescence emission intensity,wavelength 355,980850
same,Tryptophan fluorescence emission intensity,wavelength 356,973320
same,Tryptophan fluorescence emission intensity,wavelength 357,961650
same,Tryptophan fluorescence emission intensity,wavelength 358,938960
same,Tryptophan fluorescence emission intensity,wavelength 359,924340
same,Tryptophan fluorescence emission intensity,wavelength 360,898600
same,Tryptophan fluorescence emission intensity,wavelength 361,886010
same,Tryptophan fluorescence emission intensity,wavelength 362,867380
same,Tryptophan fluorescence emission intensity,wavelength 363,844340
same,Tryptophan fluorescence emission intensity,wavelength 364,830030
same,Tryptophan fluorescence emission intensity,wavelength 365,813040
same,Tryptophan fluorescence emission intensity,wavelength 366,786750
same,Tryptophan fluorescence emission intensity,wavelength 367,769070
same,Tryptophan fluorescence emission intensity,wavelength 368,749540
same,Tryptophan fluorescence emission intensity,wavelength 369,729430
same,Tryptophan fluorescence emission intensity,wavelength 370,711180
same,Tryptophan fluorescence emission intensity,wavelength 371,692310
same,Tryptophan fluorescence emission intensity,wavelength 372,672500
same,Tryptophan fluorescence emission intensity,wavelength 373,652280
same,Tryptophan fluorescence emission intensity,wavelength 374,629710
same,Tryptophan fluorescence emission intensity,wavelength 375,618580
same,Tryptophan fluorescence emission intensity,wavelength 376,599350
same,Tryptophan fluorescence emission intensity,wavelength 377,580660
same,Tryptophan fluorescence emission intensity,wavelength 378,563670
same,Tryptophan fluorescence emission intensity,wavelength 379,543190
same,Tryptophan fluorescence emission intensity,wavelength 380,522740
same,Tryptophan fluorescence emission intensity,wavelength 381,502820
same,Tryptophan fluorescence emission intensity,wavelength 382,487000
same,Tryptophan fluorescence emission intensity,wavelength 383,475140
same,Tryptophan fluorescence emission intensity,wavelength 384,456600
same,Tryptophan fluorescence emission intensity,wavelength 385,440790
same,Tryptophan fluorescence emission intensity,wavelength 386,423940
same,Tryptophan fluorescence emission intensity,wavelength 387,405220
same,Tryptophan fluorescence emission intensity,wavelength 388,397190
same,Tryptophan fluorescence emission intensity,wavelength 389,381080
same,Tryptophan fluorescence emission intensity,wavelength 390,363380
same,Tryptophan fluorescence emission intensity,wavelength 391,352540
same,Tryptophan fluorescence emission intensity,wavelength 392,336000
same,Tryptophan fluorescence emission intensity,wavelength 393,325360
same,Tryptophan fluorescence emission intensity,wavelength 394,311620
same,Tryptophan fluorescence emission intensity,wavelength 395,300840
same,Tryptophan fluorescence emission intensity,wavelength 396,285190
same,Tryptophan fluorescence emission intensity,wavelength 397,272180
same,Tryptophan fluorescence emission intensity,wavelength 398,260830
same,Tryptophan fluorescence emission intensity,wavelength 399,250140
same,Tryptophan fluorescence emission intensity,wavelength 400,241040
same,Tryptophan fluorescence emission intensity,wavelength 401,226290
same,Tryptophan fluorescence emission intensity,wavelength 402,221660
same,Tryptophan fluorescence emission intensity,wavelength 403,211970
same,Tryptophan fluorescence emission intensity,wavelength 404,203540
same,Tryptophan fluorescence emission intensity,wavelength 405,194410
same,Tryptophan fluorescence emission intensity,wavelength 406,184680
same,Tryptophan fluorescence emission intensity,wavelength 407,177100
same,Tryptophan fluorescence emission intensity,wavelength 408,169410
same,Tryptophan fluorescence emission intensity,wavelength 409,164650
same,Tryptophan fluorescence emission intensity,wavelength 410,155310
same,Tryptophan fluorescence emission intensity,wavelength 411,149680
same,Tryptophan fluorescence emission intensity,wavelength 412,144200
same,Tryptophan fluorescence emission intensity,wavelength 413,137560
same,Tryptophan fluorescence emission intensity,wavelength 414,131490
same,Tryptophan fluorescence emission intensity,wavelength 415,127250
same,Tryptophan fluorescence emission intensity,wavelength 416,120610
same,Tryptophan fluorescence emission intensity,wavelength 417,116040
same,Tryptophan fluorescence emission intensity,wavelength 418,113630
same,Tryptophan fluorescence emission intensity,wavelength 419,109000
same,Tryptophan fluorescence emission intensity,wavelength 420,104760

# From PMC9668969 (Nature Communications, 2022)
